Like-named read-outs stand apart in the source and are kept apart here.

The test deals with hQC (Homo sapiens, UniProt Q16769). Description: Inhibitor assay for glutaminyl cyclase activity (fluorometric, H-Gln-βNA / H-Gln-AMC). The class given is biochemical. In outline: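 Coupled fluorometric assay at 30 °C with pyroglutamyl aminopeptidase, in Tris/HCl pH 8.0 with EDTA, substrate H-Gln-βNA (0.2 mM; ex/em 320/410 nm) or H-Gln-AMC (ex/em 380/460 nm), initiated by QC. Screening: 4 mM inhibitor, substrate at 1 KM; Ki from progress curves fitted to competitive inhibition.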

Setting [1] is: compound from preparative synthesis, purified, read-out: IC50 hQC.

hQC, sequence (Q16769 29-361): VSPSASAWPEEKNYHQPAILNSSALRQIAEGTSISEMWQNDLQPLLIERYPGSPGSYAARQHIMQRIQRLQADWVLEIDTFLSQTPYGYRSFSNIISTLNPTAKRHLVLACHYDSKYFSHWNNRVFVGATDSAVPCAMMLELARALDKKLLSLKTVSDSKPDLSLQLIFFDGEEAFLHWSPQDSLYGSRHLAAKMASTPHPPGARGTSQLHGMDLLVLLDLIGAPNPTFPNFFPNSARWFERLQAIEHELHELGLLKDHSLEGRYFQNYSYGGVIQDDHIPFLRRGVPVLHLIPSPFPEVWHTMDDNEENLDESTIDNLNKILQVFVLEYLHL

With `O=C1C(O)=C(c2ccc(O)cc2)C(C2CCOC2)N1c1ccc2[nH]cnc2c1` (stereo not shown) [Compound 279, 1-(1H-Benzoimidazol-5-yl)-3-hydroxy-4-(4-hydroxy-phenyl)-5-(tetrahydro-furan-3-yl)-1,5-dihydro-pyrrol-2-one], the 50% inhibitory concentration (IC50) (read-out: IC50) came to 5800 nM.
Same read-out and setting: the value for `O=C1C(O)=C(c2cccc(O)c2)C(c2ccc3cccc(O)c3n2)N1c1ccc2[nH]cnc2c1` (stereo not shown) [Compound 304, 1-(1H-Benzoimidazol-5-yl)-3-hydroxy-4-(3-hydroxy-phenyl)-5-(8-hydroxy-quinolin-2-yl)-1,5-dihydro-pyrrol-2-one] was 220 nM; that for `CCC1=C(O)C(=O)N(CCCn2ccnc2)C1C1=CCCCC1` (stereo not shown) [Compound 238, 5-Cyclohex-1-enyl-4-ethyl-3-hydroxy-1-(3-imidazol-1-yl-propyl)-1,5-dihydro-pyrrol-2-one] was 40 nM.
As for `CCCCCC1=C(O)C(=O)N(CCCn2ccnc2)C1C1CC1` (stereo not shown) [Compound 212, 5-Cyclopropyl-3-hydroxy-1-(3-imidazol-1-yl-propyl)-4-pentyl-1,5-dihydro-pyrrol-2-one], under “read-out: IC50”, the half-maximal inhibitory concentration (IC50) stood at 400 nM.
With `CCCCCC1C(C)=C(O)C(=O)N1CCCn1ccnc1` (stereo not shown) [Compound 30, 3-Hydroxy-1-(3-imidazol-1-yl-propyl)-4-methyl-5-pentyl-1,5-dihydro-pyrrol-2-one], the half-maximal inhibitory concentration (IC50) (read-out: IC50) is 400 nM.
Same read-out and setting: for `CC1=C(O)C(=O)N(CCCn2ccnc2)C1c1ccccc1O` (stereo not shown) [Compound 28, 3-Hydroxy-5-(2-hydroxy-phenyl)-1-(3-imidazol-1-yl-propyl)-4-methyl-1,5-dihydro-pyrrol-2-one] the value was 400 nM; for `Cc1ccc2occ(C3C(C(=O)C(C)(C)C)=C(O)C(=O)N3c3ccc4[nH]cnc4c3)c(=O)c2c1` (stereo not shown) [Compound 382, 1-(1H-Benzoimidazol-5-yl)-4-(2,2-dimethyl-propionyl)-3-hydroxy-5-(6-methyl-4-oxo-4H-chromen-3-yl)-1,5-dihydro-pyrrol-2-one], 4000 nM; for `O=C1C(O)=C(c2ccccc2)C(c2cccc3cccnc23)N1c1ccc2[nH]cnc2c1` (stereo not shown) [Compound 267, 1-(1H-Benzoimidazol-5-yl)-3-hydroxy-4-phenyl-5-quinolin-8-yl-1,5-dihydro-pyrrol-2-one], 7510 nM.
On to `Cc1cc(C2C(c3cccc(O)c3)=C(O)C(=O)N2c2ccc3[nH]cnc3c2)oc1C` (stereo not shown) [Compound 307, 1-(1H-Benzoimidazol-5-yl)-5-(4,5-dimethyl-furan-2-yl)-3-hydroxy-4-(3-hydroxy-phenyl)-1,5-dihydro-pyrrol-2-one], for which the half-inhibitory concentration (IC50) (read-out: IC50) was found to be 2830 nM.
Take `CCCCCC1=C(O)C(=O)N(CCCn2ccnc2)C1c1ccccn1` (stereo not shown) [Compound 208, 3-Hydroxy-1-(3-imidazol-1-yl-propyl)-4-pentyl-5-pyridin-2-yl-1,5-dihydro-pyrrol-2-one]: the half-maximal inhibitory concentration (IC50) (read-out: IC50) was determined as 400 nM.
On to `Cc1ccc2c(C3C(c4ccccc4)=C(O)C(=O)N3CCCn3ccnc3)c[nH]c2c1` (stereo not shown) [Compound 95, 3-Hydroxy-1-(3-imidazol-1-yl-propyl)-5-(6-methyl-1H-indol-3-yl)-4-phenyl-1,5-dihydro-pyrrol-2-one], for which, under “read-out: IC50”, the IC50 was 40 nM.
Still for that read-out and setting: for `CC(C)C1=C(O)C(=O)N(CCCn2ccnc2)C1c1cc[nH]n1` (stereo not shown) [Compound 56, 3-Hydroxy-1-(3-imidazol-1-yl-propyl)-4-isopropyl-5-(1H-pyrazol-3-yl)-1,5-dihydro-pyrrol-2-one] the value was 2200 nM; for `CC(=O)C1=C(O)C(=O)N(c2ccc3[nH]cnc3c2)C1C1=CCCCC1` (stereo not shown) [Compound 312, 4-Acetyl-1-(1H-benzoimidazol-5-yl)-5-cyclohex-1-enyl-3-hydroxy-1,5-dihydro-pyrrol-2-one], 1840 nM.
The same measure, in the same setting: the value for `O=C1C(O)=C(c2cccc(O)c2)C(c2ccc3[nH]ccc3c2)N1CCCn1ccnc1` (stereo not shown) [Compound 12, 3-Hydroxy-4-(3-hydroxy-phenyl)-1-(3-imidazol-1-yl-propyl)-5-(1H-indol-5-yl)-1,5-dihydro-pyrrol-2-one] was 1300 nM; that for `CCC/C=C/C1C(CC)=C(O)C(=O)N1CCCn1ccnc1` (stereo not shown) [Compound 222, 4-Ethyl-3-hydroxy-1-(3-imidazol-1-yl-propyl)-5-(pent-1-enyl)-1,5-dihydro-pyrrol-2-one] was 3100 nM.
As to `CC1=C(O)C(=O)N(CCCn2ccnc2)C1C1CCC=CO1` (stereo not shown) [Compound 35, 5-(3,4-Dihydro-2H-pyran-2-yl)-3-hydroxy-1-(3-imidazol-1-yl-propyl)-4-methyl-1,5-dihydro-pyrrol-2-one], under “read-out: IC50”, the IC50 is 2200 nM.
For `COc1ccc(C2C(c3ccccc3)=C(O)C(=O)N2CCCn2ccnc2)cc1` (stereo not shown) [Compound 86, 3-Hydroxy-1-(3-imidazol-1-yl-propyl)-5-(4-methoxy-phenyl)-4-phenyl-1,5-dihydro-pyrrol-2-one], the IC50 turned out to be 1230 nM under setting [1] and 40 nM (read-out: IC50).
`Cc1ccc(C2C(c3ccc(O)cc3)=C(O)C(=O)N2CCCn2ccnc2)o1` (stereo not shown) [Compound 154, 3-Hydroxy-4-(4-hydroxy-phenyl)-1-(3-imidazol-1-yl-propyl)-5-(5-methyl-furan-2-yl)-1,5-dihydro-pyrrol-2-one]: the IC50 (read-out: IC50) stood at 40 nM.
Take `CC(=O)C1=C(O)C(=O)N(c2ccc3[nH]cnc3c2)C1c1ccc(O)c(Br)c1` (stereo not shown) [Compound 333, 4-Acetyl-1-(1H-benzoimidazol-5-yl)-5-(3-bromo-4-hydroxy-phenyl)-3-hydroxy-1,5-dihydro-pyrrol-2-one]: the IC50 (read-out: IC50) is 760 nM.
On to `O=C1C(O)=C(c2ccccc2)C(c2ncc[nH]2)N1CCCn1ccnc1` (stereo not shown) [Compound 98, 3-Hydroxy-5-(1H-imidazol-2-yl)-1-(3-imidazol-1-yl-propyl)-4-phenyl-1,5-dihydro-pyrrol-2-one], for which the 50% inhibitory concentration (IC50) (read-out: IC50) was found to be 1300 nM.
With `CSCC1=C(O)C(=O)N(c2ccc3[nH]cnc3c2)C1c1cc(Cl)ccc1O` (stereo not shown) [Compound 336, 1-(1H-Benzoimidazol-5-yl)-5-(5-chloro-2-hydroxy-phenyl)-3-hydroxy-4-methylsulfanylmethyl-1,5-dihydro-pyrrol-2-one], the half-inhibitory concentration (IC50) under setting [1] stood at 156 nM and the IC50 (read-out: IC50) worked out at 310 nM.
Consider `O=C(O)CC1=C(O)C(=O)N(c2ccc3[nH]cnc3c2)C1c1csc2ccccc12` (stereo not shown) [Compound 408, [2-Benzo[b]thiophen-3-yl-1-(1H-benzoimidazol-5-yl)-4-hydroxy-5-oxo-2,5-dihydro-1H-pyrrol-3-yl]-acetic acid], for which, for the setting “read-out: IC50”, the half-inhibitory concentration (IC50) was 6430 nM.
Still for that read-out and setting: the value for `CCCCCC1=C(O)C(=O)N(CCCn2ccnc2)C1c1ccc2[nH]ccc2c1` (stereo not shown) [Compound 192, 3-Hydroxy-1-(3-imidazol-1-yl-propyl)-5-(1H-indol-5-yl)-4-pentyl-1,5-dihydro-pyrrol-2-one] was 40 nM; that for `CCC1=C(O)C(=O)N(CCCn2ccnc2)C1c1ccccc1` (stereo not shown) [Compound 236, 4-Ethyl-3-hydroxy-1-(3-imidazol-1-yl-propyl)-5-phenyl-1,5-dihydro-pyrrol-2-one] was 1300 nM; that for `O=C1C(O)=C(c2ccccc2)C(c2cccc(Cl)c2)N1CCCn1ccnc1` (stereo not shown) [Compound 109, 5-(3-Chloro-phenyl)-3-hydroxy-1-(3-imidazol-1-yl-propyl)-4-phenyl-1,5-dihydro-pyrrol-2-one] was 400 nM.
Consider `CC(C)C1=C(O)C(=O)N(c2ccc3[nH]cnc3c2)C1c1cc(F)cc(F)c1F` (stereo not shown) [Compound 253, 1-(1H-Benzoimidazol-5-yl)-3-hydroxy-4-isopropyl-5-(2,3,5-trifluoro-phenyl)-1,5-dihydro-pyrrol-2-one], for which, where the note is “read-out: IC50”, the 50% inhibitory concentration (IC50) turned out to be 1300 nM.
For `CCCCCC1C(c2ccc(O)cc2)=C(O)C(=O)N1CCCn1ccnc1` (stereo not shown) [Compound 159, 3-Hydroxy-4-(4-hydroxy-phenyl)-1-(3-imidazol-1-yl-propyl)-5-pentyl-1,5-dihydro-pyrrol-2-one], where the note is “read-out: IC50”, the IC50 stood at 40 nM.
As to `CCCC(=O)C1=C(O)C(=O)N(c2ccc3[nH]cnc3c2)C1c1ccc2cccc(O)c2n1` (stereo not shown) [Compound 368, 1-(1H-Benzoimidazol-5-yl)-4-butyryl-3-hydroxy-5-(8-hydroxy-quinolin-2-yl)-1,5-dihydro-pyrrol-2-one], the half-inhibitory concentration (IC50) (read-out: IC50) stood at 4 nM.
Regarding `CC1=C(O)C(=O)N(CCCn2ccnc2)C1c1ccncc1` (stereo not shown) [Compound 44, 3-Hydroxy-1-(3-imidazol-1-yl-propyl)-4-methyl-5-pyridin-4-yl-1,5-dihydro-pyrrol-2-one], under “read-out: IC50”, the IC50 was 3100 nM.
`CC(C)C1=C(O)C(=O)N(CCCn2ccnc2)C1c1cccc(Cl)c1` (stereo not shown) [Compound 73, 5-(3-Chloro-phenyl)-3-hydroxy-1-(3-imidazol-1-yl-propyl)-4-isopropyl-1,5-dihydro-pyrrol-2-one]: where the note is “read-out: IC50”, the half-inhibitory concentration (IC50) is 3100 nM.
`O=C1C(O)=C(c2ccccc2)C(c2c(F)ccc(Cl)c2F)N1c1ccc2[nH]cnc2c1` (stereo not shown) [Compound 339, 1-(1H-Benzoimidazol-5-yl)-5-(3-chloro-2,6-difluoro-phenyl)-3-hydroxy-4-phenyl-1,5-dihydro-pyrrol-2-one]: the half-inhibitory concentration (IC50) (read-out: IC50) was 580 nM.
With `CC1=C(O)C(=O)N(c2ccc3[nH]cnc3c2)C1c1cc(C)c(C)o1` (stereo not shown) [Compound 394, 1-(1H-Benzoimidazol-5-yl)-5-(4,5-dimethyl-furan-2-yl)-3-hydroxy-4-methyl-1,5-dihydro-pyrrol-2-one], the half-maximal inhibitory concentration (IC50) (read-out: IC50) stood at 9220 nM.
Still for that read-out and setting: the value for `CCCCCC1C(c2cccc(O)c2)=C(O)C(=O)N1CCCn1ccnc1` (stereo not shown) [Compound 16, 3-Hydroxy-4-(3-hydroxy-phenyl)-1-(3-imidazol-1-yl-propyl)-5-pentyl-1,5-dihydro-pyrrol-2-one] was 400 nM; that for `O=C1C(O)=C(c2ccc(O)cc2)C(c2ccc(CO)o2)N1CCCn1ccnc1` (stereo not shown) [Compound 161, 3-Hydroxy-5-(5-hydroxymethyl-furan-2-yl)-4-(4-hydroxy-phenyl)-1-(3-imidazol-1-yl-propyl)-1,5-dihydro-pyrrol-2-one] was 400 nM.
As for `CC1=C(O)C(=O)N(c2ccc3[nH]cnc3c2)C1c1cnc2ccccc2c1` (stereo not shown) [Compound 448, 1-(1H-Benzoimidazol-5-yl)-3-hydroxy-4-methyl-5-quinolin-3-yl-1,5-dihydro-pyrrol-2-one], where the note is “read-out: IC50”, the IC50 is 1750 nM.

Usually IC50 stands for the midpoint of a concentration-inhibition curve.

The values above are taken from patent publication US8278345B2, “Inhibitors of glutaminyl cyclase” (Probiodrug AG, priority 2006, dated 2012).
